According to ChEMBL document CHEMBL2440069, “Synthesis and biological evaluation of direct thrombin inhibitors bearing 4-(piperidin-1-yl)pyridine at the P1 position with potent anticoagulant activity” (J Med Chem, 2013):

Key:
Prothrombin [1] = target: Prothrombin (Bos taurus, UniProt P00735); experiment: Inhibition of bovine thrombin using D-Phe-Pip-Arg-p-NA as substrate by chromogenic assay
Coagulation factor X = Coagulation factor X (Homo sapiens, UniProt P00742); experiment: Inhibition of human factor 10a using Z-D-Arg-Gly-Arg-p-NA as substrate by chromogenic assay
Chain of Coagulation factor X (P00742 41-179 limits assumed): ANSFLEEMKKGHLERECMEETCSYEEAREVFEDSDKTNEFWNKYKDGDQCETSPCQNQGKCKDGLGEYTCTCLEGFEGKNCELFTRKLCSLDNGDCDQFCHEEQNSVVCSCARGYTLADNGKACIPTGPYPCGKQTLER
Chain of Coagulation factor X (P00742 235-488 limits assumed): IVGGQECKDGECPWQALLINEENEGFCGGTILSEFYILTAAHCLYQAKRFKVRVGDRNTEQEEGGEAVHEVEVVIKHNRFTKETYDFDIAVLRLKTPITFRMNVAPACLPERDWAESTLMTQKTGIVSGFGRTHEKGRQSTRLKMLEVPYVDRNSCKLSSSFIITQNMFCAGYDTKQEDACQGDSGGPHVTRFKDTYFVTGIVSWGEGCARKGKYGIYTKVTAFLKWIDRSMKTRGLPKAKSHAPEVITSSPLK

[2] = 1-octanol-water partition coefficient, log D of the compound; type: physicochemical
[3] = Dissociation constant, pKa of the compound by potentiometric titration; type: physicochemical
Chymotrypsinogen A = Chymotrypsinogen A (Bos taurus, UniProt P00766); experiment: Inhibition of bovine alpha-chymotrypsin using N-succinyl-Ala-Ala-Pro-Phe-p-NA as substrate by chromogenic assay
Plasma = experiment: Anticoagulant activity in human plasma assessed as concentration required to double activated […] time; type: functional
[4] = Permeability of the compound at pH 6.8 by PAMPA assay; type: ADME
[5] = 1-octanol-water partition coefficient, log P of the neutral form compound by HILIC analysis; type: physicochemical
[6] = Inhibition of bovine pancreatic trypsin using D-Phe-Pip-Arg-p-NA as substrate by chromogenic assay; set-up: species or system Bos taurus
Prothrombin [7] = target: Prothrombin (Homo sapiens, UniProt P00734); experiment: Inhibition of human thrombin using D-Phe-Pip-Arg-p-NA as substrate by chromogenic assay
Coagulation factor VII = target: T1, Coagulation factor VII (Homo sapiens, UniProt P08709); experiment: Inhibition of human recombinant factor 7a using spectrozyme as substrate by chromogenic assay
T1 sequence (P08709 whole entry): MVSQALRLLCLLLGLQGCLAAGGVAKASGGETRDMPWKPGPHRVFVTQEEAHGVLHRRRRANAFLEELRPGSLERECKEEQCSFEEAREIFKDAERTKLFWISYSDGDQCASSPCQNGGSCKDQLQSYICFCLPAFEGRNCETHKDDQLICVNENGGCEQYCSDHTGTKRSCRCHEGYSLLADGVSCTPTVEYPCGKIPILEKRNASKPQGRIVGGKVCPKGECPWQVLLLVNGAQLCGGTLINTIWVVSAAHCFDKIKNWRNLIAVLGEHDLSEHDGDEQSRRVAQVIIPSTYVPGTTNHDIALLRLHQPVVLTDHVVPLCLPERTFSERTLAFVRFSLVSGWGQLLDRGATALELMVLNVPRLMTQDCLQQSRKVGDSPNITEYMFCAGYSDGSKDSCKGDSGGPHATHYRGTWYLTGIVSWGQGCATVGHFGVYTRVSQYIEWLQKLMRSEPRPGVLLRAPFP

Neutrophil elastase = target: T2, Neutrophil elastase (Homo sapiens, UniProt P08246); experiment: Inhibition of human neutrophil leukocyte elastase using N-(methoxysuccinyl)-Ala-Ala-Pro-Val-p-NA as substrate by chromogenic assay
T2 sequence (P08246 whole entry): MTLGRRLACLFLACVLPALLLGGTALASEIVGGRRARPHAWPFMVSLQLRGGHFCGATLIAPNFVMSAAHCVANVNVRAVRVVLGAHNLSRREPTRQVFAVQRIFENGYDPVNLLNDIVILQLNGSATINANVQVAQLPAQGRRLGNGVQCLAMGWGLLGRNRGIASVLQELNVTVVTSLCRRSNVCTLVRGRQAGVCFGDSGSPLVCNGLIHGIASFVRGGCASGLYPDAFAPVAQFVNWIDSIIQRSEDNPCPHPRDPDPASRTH

[8] = Permeability of the compound at pH 8 by PAMPA assay; type: ADME

SMILES	Ki (Prothrombin [1]; read-out: Ki) [µM]	Ki (Coagulation factor X) [µM]	pKa [3]	further results
O=C(Nc1ccccc1OCc1cccc(F)c1)C1CCN(c2ccncc2)CC1	> 250	> 250		
Fc1cccc(COc2cccc(NCC3CCN(c4ccncc4)CC3)c2)c1	> 250	3.83		
O=C(Nc1cccc(CCc2cccc(F)c2)c1)C1CCN(c2ccncc2)CC1	12.4	44.1		Ki (Prothrombin [1]; read-out: pKi (converted)): 12.3 µM; logD [2]: 3.58
O=C(Nc1cccc(COc2cccc(F)c2)c1)C1CCN(c2ccncc2)CC1	18.2	> 250		logD [2]: 3.02
O=C(Nc1cccc(OCCc2cccc(F)c2)c1)C1CCN(c2ccncc2)CC1	0.488	2.14		Ki (Prothrombin [1]; read-out: pKi (converted)): 18.2 µM
CN(C(=O)C1CCN(c2ccncc2)CC1)c1cccc(OCc2cccc(F)c2)c1	> 250	23.6		
O=C(Nc1cccc(OCc2ccc3c(c2)OCO3)c1)C1CCN(c2ccncc2)CC1	0.053	3.72	9.1	Ki (Chymotrypsinogen A): > 250 µM; 2aPTT (Plasma): >200 µM; log Pe [4]: impermeable; logP [5]: 4.9
COc1cc(COc2cccc(NC(=O)C3CCN(c4ccncc4)CC3)c2)cc(OC)c1	0.083	126	8.9	Ki (Chymotrypsinogen A): 33.8 µM; 2aPTT (Plasma): 200 µM; logP [5]: 4.9
COc1ccc(COc2cccc(NC(=O)C3CCN(c4ccncc4)CC3)c2)cc1OC	0.031	0.606	9.2	Ki [6]: 27 µM; Ki (Prothrombin [7]): 0.755 µM; Ki (Chymotrypsinogen A): 71.5 µM; Ki (Coagulation factor VII): > 250 µM; 2aPTT (Plasma): 154 µM; Ki (Neutrophil elastase): > 250 µM; logP [5]: 4.9
COc1ccc(COc2cccc(NC(=O)C3CCN(c4ccncc4)CC3)c2)cc1	2.03	11.1		
COc1cccc(COc2cccc(NC(=O)C3CCN(c4ccncc4)CC3)c2)c1	1.15	7.23		
COc1ccccc1COc1cccc(NC(=O)C2CCN(c3ccncc3)CC2)c1	1.3	16.4		
CN(C)Cc1ccc(COc2cccc(NC(=O)C3CCN(c4ccncc4)CC3)c2)cc1	8.19	12.2		
Nc1cccc(COc2cccc(NC(=O)C3CCN(c4ccncc4)CC3)c2)c1	13.3	36.1		
Nc1ccc(COc2cccc(NC(=O)C3CCN(c4ccncc4)CC3)c2)cc1	10	25		
O=C(Nc1cccc(OCc2ccc(C(F)(F)F)cc2)c1)C1CCN(c2ccncc2)CC1	3.4	48.5		
CS(=O)(=O)c1cccc(COc2cccc(NC(=O)C3CCN(c4ccncc4)CC3)c2)c1	15.9	15.6		
CS(=O)(=O)c1ccccc1COc1cccc(NC(=O)C2CCN(c3ccncc3)CC2)c1	12.3	35.1		
CS(=O)(=O)c1ccc(COc2cccc(NC(=O)C3CCN(c4ccncc4)CC3)c2)cc1	0.124	7.73	9.1	Ki (Chymotrypsinogen A): > 250 µM; 2aPTT (Plasma): 98.2 µM; logP [5]: 4.9

SMILES	Ki (Prothrombin [1]; read-out: Ki) [µM]	Ki (Coagulation factor X) [µM]	pKa [3]	further results
O=C(Nc1cccc(OCc2cccc([N+](=O)[O-])c2)c1)C1CCN(c2ccncc2)CC1	26.8	6.73		
O=C(Nc1cccc(OCc2ccc([N+](=O)[O-])cc2)c1)C1CCN(c2ccncc2)CC1	5.85	6		
O=C(Nc1cccc(OCc2cccc(Br)c2)c1)C1CCN(c2ccncc2)CC1	20.9	6.31		
O=C(Nc1cccc(OCc2ccc(Br)cc2)c1)C1CCN(c2ccncc2)CC1	2.03	37.1		
O=C(Nc1cccc(OCc2ccc(Cl)cc2)c1)C1CCN(c2ccncc2)CC1	0.26	29.6		
O=C(Nc1cccc(OCc2cccc(Cl)c2)c1)C1CCN(c2ccncc2)CC1	0.156	> 250		
O=C(Nc1cccc(OCc2cc(F)cc(F)c2)c1)C1CCN(c2ccncc2)CC1	0.063	27	9.2	Ki [6]: > 250 µM; Ki (Prothrombin [7]): 0.031 µM; Ki (Chymotrypsinogen A): 31.4 µM; Ki (Coagulation factor VII): > 250 µM; 2aPTT (Plasma): 26.3 µM; Ki (Neutrophil elastase): > 250 µM; logP [5]: 5.2
O=C(Nc1cccc(OCc2ccccc2F)c1)C1CCN(c2ccncc2)CC1	0.064	6.83	9.2	Ki [6]: 27 µM; Ki (Prothrombin [7]): 0.09 µM; Ki (Chymotrypsinogen A): 71.6 µM; Ki (Coagulation factor VII): > 250 µM; 2aPTT (Plasma): 19.8 µM; Ki (Neutrophil elastase): > 250 µM; logP [5]: 4.9
O=C(Nc1cccc(OCc2ccc(F)cc2F)c1)C1CCN(c2ccncc2)CC1	4.64	8.8		
O=C(Nc1cccc(OCc2ccc(F)cc2)c1)C1CCN(c2ccncc2)CC1			8.9	Ki [6]: > 250 µM; Ki (Prothrombin [7]): 0.014 µM; Ki (Chymotrypsinogen A): 71.6 µM; Ki (Coagulation factor VII): > 250 µM; 2aPTT (Plasma): 59 µM; Ki (Neutrophil elastase): 68.7 µM; logP [5]: 5.1
Nc1ccc(N2CCC(C(=O)Nc3cccc(OCc4ccc(F)cc4)c3)CC2)cc1	> 250	63.5	3	
O=C(Nc1cccc(OCc2ccccc2)c1)C1CCN(c2ccncc2)CC1	39.5	7.46		
O=C(Nc1cccc(OCc2ccc(F)cc2)c1)C1CCN(c2ccccn2)CC1	> 250	78	8.5	
O=C(Nc1cccc(OCc2ccc(F)cc2)c1)C1CCN(c2ncccn2)CC1	26.8	91.6	6	log Pe [4]: impermeable; log Pe [8]: impermeable
CC(C)N1CCC(C(=O)Nc2cccc(OCc3ccc(F)cc3)c2)CC1	> 250	> 250	9.4	
O=C(Nc1cccc(OCc2ccc(F)cc2)c1)C1CCN(Cc2ccncc2)CC1	15.3	47.1	3.3	log Pe [4]: impermeable; log Pe [8]: impermeable
CC(=N)N1CCC(C(=O)Nc2cccc(OCc3ccc(F)cc3)c2)CC1	> 250	57.3		
O=C(Nc1cccc(OCc2ccc(F)cc2)c1)C1CCNCC1			9.8	
